We go through 24 compounds from US10294229B2, “Heteroaryl substituted aminopyridine compounds” (BRISTOL-MYERS SQUIBB COMPANY, priority 2015, dated 2019).

The structures appear in SMILES notation.

Assay [1] has as its target IRAK4 (Homo sapiens (Human), UniProt Q9NWZ3). The assay is described as follows: IRAK4 Inhibition Assay. Type of assay: biochemical. The following applies: ATP 500 μM; IRAK4 0.6 nM. In a few lines: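 Mobility-shift readout: phosphorylated and unphosphorylated fluorescent peptide (1.5 μM) resolved by electrophoresis after a 60 min room-temperature reaction stopped with EDTA. Reaction holds 0.6 nM IRAK4, 500 μM ATP and 1.6% DMSO in HEPES pH 7.2/MgCl2/Brij 35/DTT buffer; percent inhibition set against vehicle and no-enzyme controls.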

The subject of assay [2] is Human whole blood stimulated with a TLR2 agonist (lipoteichoic acid), IL-6 levels. Put plainly: IRAK4 Whole Blood Assay. Type of assay: cell-based. The following applies: Homo sapiens, lipoteichoic acid 10 μg/mL. Here is the method:
Human whole blood containing the anti-coagulant ACD-A was plated in 384-well plate (25 μL/well) and incubated with compounds for 60 minutes at 37° C. in a 5% CO2 incubator. The blood was stimulated with a TLR2 agonist, 10 μg/mL final concentration of lipoteichoic acid (Invivogen, San Diego, Calif.) in 25 μL RPMI (Gibco) for 5 hours in a 5% CO2 incubator. At the end of the incubation, plates were centrifuged at 2300 rpm for 5 minutes. Supernatants were harvested and analyzed for IL-6 levels by Flow Cytometry beads assay (BD Biosciences, San Jose, Calif.).

Chain of IRAK4 (Q9NWZ3 whole entry, species assumed): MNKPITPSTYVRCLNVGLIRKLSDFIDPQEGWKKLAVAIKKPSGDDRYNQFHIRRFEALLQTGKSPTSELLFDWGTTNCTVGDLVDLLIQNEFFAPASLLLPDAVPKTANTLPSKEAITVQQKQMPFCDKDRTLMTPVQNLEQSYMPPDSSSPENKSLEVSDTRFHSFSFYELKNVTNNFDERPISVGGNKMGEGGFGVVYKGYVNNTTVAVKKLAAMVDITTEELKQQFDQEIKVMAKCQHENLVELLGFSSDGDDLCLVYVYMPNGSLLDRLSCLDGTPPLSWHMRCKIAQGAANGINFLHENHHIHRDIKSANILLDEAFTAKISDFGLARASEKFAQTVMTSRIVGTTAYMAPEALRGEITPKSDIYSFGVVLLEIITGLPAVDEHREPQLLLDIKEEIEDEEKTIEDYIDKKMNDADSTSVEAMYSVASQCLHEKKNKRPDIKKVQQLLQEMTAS

Regarding `CC(C)Nc1cc(-n2ncc3cc(C#N)cnc32)ncc1-c1cc(C2CCOCC2)no1` [Example 418, 1-(4-(isopropylamino)-5-(3-(tetrahydro-2H-pyran-4-yl)isoxazol-5-yl)pyridin-2-yl)-1H-pyrazolo[3,4-b]pyridine-5-carbonitrile], the concentration for half-maximal inhibition (IC50) in assay [1] came to 3 nM. This compound also returned an EC50 in assay [2] of 490 nM.

As for `CC(C)Nc1cc(-n2ncc3cc(C#N)cnc32)ncc1-c1cn(CCc2ccccn2)nn1` [Example 118, 1-(4-(isopropylamino)-5-(1-(2-(pyridin-2-yl)ethyl)-1H-1,2,3-triazol-4-yl)pyridin-2-yl)-1H-pyrazolo[3,4-b]pyridine-5-carbonitrile], in assay [1], the half-inhibitory concentration (IC50) was 3 nM. In assay [2], this compound registered an EC50 of 1090 nM.

On to `CC(C)Nc1cc(-n2ncc3cc(C#N)cnc32)ncc1-n1cc(CC(F)C(C)(C)O)nn1` (racemic) [345, racemic, (±)-1-(5-(4-(2-fluoro-3-hydroxy-3-methylbutyl)-1H-1,2,3-triazol-1-yl)-4-(isopropylamino)pyridin-2-yl)-1H-pyrazolo[3,4-b]pyridine-5-carbonitrile], for which the IC50 in assay [1] turned out to be 4 nM. In assay [2], this compound displayed an EC50 of 270 nM.

As to `CC(C)Nc1cc(-n2ncc3cc(C#N)cnc32)ncc1-c1cn(CCS(C)(=O)=O)nn1` [Example 116, 1-(4-(isopropylamino)-5-(1-(2-(methylsulfonyl)ethyl)-1H-1,2,3-triazol-4-yl)pyridin-2-yl)-1H-pyrazolo[3,4-b]pyridine-5-carbonitrile], the half-maximal inhibitory concentration (IC50) in assay [1] was 3 nM. Moreover, the EC50 in assay [2] was found to be 210 nM.

Take `CC(C)Nc1cc(-n2ncc3cc(C#N)c(N)nc32)ncc1-c1cn(CCCF)nn1` [Example 46, 6-amino-1-(5-(1-(3-fluoropropyl)-1H-1,2,3-triazol-4-yl)-4-(isopropylamino)pyridin-2-yl)-1H-pyrazolo[3,4-b]pyridine-5-carbonitrile]: the IC50 in assay [1] came out at 14 nM. In assay [2], this compound showed an EC50 of 490 nM.

With `CC(C)Nc1cc(-n2ncc3cc(C#N)cnc32)ncc1-n1cc(C2CCN(C(=O)OC(C)(C)C)CC2)nn1` [Example 333, tert-butyl 4-(1-(6-(5-cyano-1H-pyrazolo[3,4-b]pyridin-1-yl)-4-(isopropylamino)pyridin-3-yl)-1H-1,2,3-triazol-4-yl)piperidine-1-carboxylate], in assay [1], the IC50 turned out to be 14 nM. The EC50 in assay [2] turned out to be 4700 nM.

Consider `CC(C)Nc1cc(-n2ncc3cc(C#N)cnc32)ncc1-c1cn(C2CN(C(=O)C3CC3)C2)nn1` [Example 145, 1-(5-(1-(1-(cyclopropanecarbonyl)azetidin-3-yl)-1H-1,2,3-triazol-4-yl)-4-(isopropylamino)pyridin-2-yl)-1H-pyrazolo[3,4-b]pyridine-5-carbonitrile], for which, in assay [1], the concentration for half-maximal inhibition (IC50) came out at 4 nM. The EC50 in assay [2] was found to be 740 nM.

As for `CC(C)Nc1cc(-n2ncc3cc(C#N)cnc32)ncc1-c1cn([C@H]2CCN(C(=O)OC(C)(C)C)C[C@H]2O)nn1` [Example 176, (3R,4S)-tert-butyl 4-(4-(6-(5-cyano-1H-pyrazolo[3,4-b]pyridin-1-yl)-4-(isopropylamino)pyridin-3-yl)-1H-1,2,3-triazol-1-yl)-3-hydroxypiperidine-1-carboxylate], the concentration for half-maximal inhibition (IC50) in assay [1] was determined as 13 nM. In assay [2], this compound yielded an EC50 of 2100 nM.

Regarding `CC(C)Nc1cc(-n2ncc3cc(C#N)cnc32)ncc1C1=NOC(CCC(C)(C)O)C1` (stereo not drawn) [Example 437, 1-(5-(5-(3-hydroxy-3-methylbutyl)-4,5-dihydroisoxazol-3-yl)-4-(isopropylamino)pyridin-2-yl)-1H-pyrazolo[3,4-b]pyridine-5-carbonitrile], the half-maximal inhibitory concentration (IC50) in assay [1] was 2 nM. The half-maximal effective concentration (EC50) in assay [2] amounted to 210 nM.

In the case of `CC(C)Nc1cc(-n2cnc3cc(C#N)cnc32)ncc1-c1cn([C@@H]2CCC[C@H]2O)nn1` (single isomer, unassigned) [Example 81], in assay [1], the half-inhibitory concentration (IC50) worked out at 4 nM. Further, it took 1540 nM to reach a half-maximal effect in assay [2] (EC50).

`CC(C)Nc1cc(-n2ncc3cc(C#N)cnc32)ncc1-c1cn([C@H](CO)c2ccccc2)nn1` [Example 87, (S)-1-(5-(1-(2-hydroxy-1-phenylethyl)-1H-1,2,3-triazol-4-yl)-4-(isopropylamino)pyridin-2-yl)-1H-pyrazolo[3,4-b]pyridine-5-carbonitrile]: the 50% inhibitory concentration (IC50) in assay [1] is 9 nM. Also, the EC50 in assay [2] is 4530 nM.

With `CC(C)(O)CCc1cn(-c2cnc(-n3ncc4cc(C#N)cnc43)cc2NC(C)(C)CO)nn1` [Example 381, 1-(4-((1-hydroxy-2-methylpropan-2-yl)amino)-5-(4-(3-hydroxy-3-methylbutyl)-1H-1,2,3-triazol-1-yl)pyridin-2-yl)-1H-pyrazolo[3,4-b]pyridine-5-carbonitrile], the half-maximal inhibitory concentration (IC50) in assay [1] came out at 2 nM. In addition, in assay [2], the concentration for a half-maximal effect (EC50) came to 250 nM.

With `CC(C)Nc1cc(-n2ncc3cc(C#N)cnc32)ncc1-c1cn(C[C@@H](O)c2ccccc2)nn1` [Example 84, (S)-1-(5-(1-(2-hydroxy-2-phenylethyl)-1H-1,2,3-triazol-4-yl)-4-(isopropylamino)pyridin-2-yl)-1H-pyrazolo[3,4-b]pyridine-5-carbonitrile], the half-maximal inhibitory concentration (IC50) in assay [1] is 5 nM. Further, a half-maximal response in assay [2] (EC50) required 530 nM.

Consider `CC(C)Nc1cc(-n2ncc3cc(C#N)cnc32)ncc1-c1cn(C[C@H](C)O)nn1` [Example 65, (S)-1-(5-(1-(2-hydroxypropyl)-1H-1,2,3-triazol-4-yl)-4-(isopropylamino)pyridin-2-yl)-1H-pyrazolo[3,4-b]pyridine-5-carbonitrile], for which the 50% inhibitory concentration (IC50) in assay [1] was 9 nM. The same compound gave an EC50 in assay [2] of 420 nM.

For the compound `CC[C@H](O)Cn1cc(-c2cnc(-n3ncc4cc(C#N)cnc43)cc2NC(C)C)nn1` [Example 134, (S)-1-(5-(1-(2-hydroxybutyl)-1H-1,2,3-triazol-4-yl)-4-(isopropylamino)pyridin-2-yl)-1H-pyrazolo[3,4-b]pyridine-5-carbonitrile], in assay [1], the IC50 came out at 6 nM. The 50% effective concentration (EC50) in assay [2] turned out to be 550 nM.

Turning to `CCCc1cn(-c2cnc(-n3ncc4cc(Cl)cnc43)cc2NC(C)C)nn1` [Example 282, 2-(5-chloro-1H-pyrazolo[3,4-b]pyridin-1-yl)-N-isopropyl-5-(4-propyl-1H-1,2,3-triazol-1-yl)pyridin-4-amine], the half-inhibitory concentration (IC50) in assay [1] turned out to be 13 nM. The half-maximal effective concentration (EC50) in assay [2] amounted to 2260 nM.

In the case of `CC(C)Nc1cc(-n2ncc3cc(C#N)cnc32)ncc1-c1cn([C@H]2CCN(C(=O)c3ccccn3)C[C@H]2O)nn1` [Example 183, 1-(5-(1-((3R,4S)-3-hydroxy-1-picolinoylpiperidin-4-yl)-1H-1,2,3-triazol-4-yl)-4-(isopropylamino)pyridin-2-yl)-1H-pyrazolo[3,4-b]pyridine-5-carbonitrile], the 50% inhibitory concentration (IC50) in assay [1] was found to be 10 nM. Besides, the concentration for a half-maximal effect (EC50) in assay [2] is 520 nM.

`CC(O)Cc1cn(-c2cnc(-n3ncc4cc(C#N)cnc43)cc2NC(C)C)nn1` (single isomer, unassigned) [Example 265, 1-(5-(4-(2-hydroxypropyl)-1H-1,2,3-triazol-1-yl)-4-(isopropylamino)pyridin-2-yl)-1H-pyrazolo[3,4-b]pyridine-5-carbonitrile]: the concentration for half-maximal inhibition (IC50) in assay [1] amounted to 5 nM. For the same compound, the EC50 in assay [2] was determined as 410 nM.

As for `CC(C)Nc1cc(-n2ncc3cc(C#N)cnc32)ncc1-c1cn(C2CN(C(=O)C(C)C)C2)nn1` [Example 144, 1-(5-(1-(1-isobutyrylazetidin-3-yl)-1H-1,2,3-triazol-4-yl)-4-(isopropylamino)pyridin-2-yl)-1H-pyrazolo[3,4-b]pyridine-5-carbonitrile], the IC50 in assay [1] was determined as 4 nM. Moreover, the EC50 in assay [2] turned out to be 490 nM.

With `CC(C)Nc1cc(-n2ncc3cc(C#N)cnc32)ncc1-c1cn([C@@H](CO)c2ccccc2)nn1` [Example 86, (R)-1-(5-(1-(2-hydroxy-1-phenylethyl)-1H-1,2,3-triazol-4-yl)-4-(isopropylamino)pyridin-2-yl)-1H-pyrazolo[3,4-b]pyridine-5-carbonitrile], the half-maximal inhibitory concentration (IC50) in assay [1] was determined as 18 nM. The compound also showed a half-maximal effective concentration (EC50) in assay [2] of 1770 nM.

For the compound `COC(=O)N1CCC[C@@H](c2cc(-c3cnc(-n4ncc5cc(C#N)cnc54)cc3NC(C)C)on2)C1` [Example 408, methyl (R)-3-(5-(6-(5-cyano-1H-pyrazolo[3,4-b]pyridin-1-yl)-4-(isopropylamino)pyridin-3-yl)isoxazol-3-yl)piperidine-1-carboxylate], the concentration for half-maximal inhibition (IC50) in assay [1] was 2 nM. In assay [2], a half-maximal effect (EC50) was put at 490 nM.

Regarding `COC(=O)N1CC(n2cc(-c3cnc(-n4ncc5cc(C#N)cnc54)cc3NC(C)C)nn2)C1` [Example 142, methyl 3-(4-(6-(5-cyano-1H-pyrazolo[3,4-b]pyridin-1-yl)-4-(isopropylamino)pyridin-3-yl)-1H-1,2,3-triazol-1-yl)azetidine-1-carboxylate], the half-inhibitory concentration (IC50) in assay [1] was determined as 5 nM. This compound also showed a concentration giving a half-maximal response (EC50) in assay [2] of 560 nM.

Regarding `CC(C)Nc1cc(-n2ncc3cc(C#N)c(N)nc32)ncc1-c1cn(C[C@H](C)O)nn1` [Example 70, (S)-6-amino-1-(5-(1-(2-hydroxypropyl)-1H-1,2,3-triazol-4-yl)-4-(isopropylamino)pyridin-2-yl)-1H-pyrazolo[3,4-b]pyridine-5-carbonitrile], in assay [1], the 50% inhibitory concentration (IC50) came to 5 nM. In assay [2], this compound displayed an EC50 of 3960 nM.

As for `CCCCc1cn(-c2cnc(-n3ncc4cc(C#N)cnc43)cc2NC(C)C)nn1` [Example 320, 1-(5-(4-butyl-1H-1,2,3-triazol-1-yl)-4-(isopropylamino)pyridin-2-yl)-1H-pyrazolo[3,4-b]pyridine-5-carbonitrile], the IC50 in assay [1] turned out to be 3 nM. The same compound registered a concentration for a half-maximal effect (EC50) in assay [2] of 930 nM.
